Converted amounts (≈) assume the structure as drawn. Read-outs that look alike come from different tables or passages of the source.
Experiments:
Type in all cases: cell-based
Escherichia coli = test: MIC by Gradient Plate Method, in vitro antibiotic activity vs gram-negative microorganisms (Table I); conditions: read-out: Minimum Inhibitory Conc.
Method: (§1) In the tables the minimum inhibitory concentrations (MIC) of the listed compound verses the indicated gram-positive and gram-negative microorganisms is presented.
(§2) The MIC values were determined by the Gradient Plate Method which is essentially the method described by Bryson and Szybalski, Science, 116, 45-46 (1952).

Serratia marcescens = test: as above; conditions: read-out: Minimum Inhibitory Conc.
Method: as §1, §2

Aerobacter aerogenes = test: as above; conditions: Klebsiella aerogenes, read-out: Minimum Inhibitory Conc.
Method: as §1, §2

Pseudomonas aeruginosa = test: as above; conditions: read-out: Minimum Inhibitory Conc.
Method: as §1, §2

Shigella sp. = test: as above; conditions: read-out: Minimum Inhibitory Conc.
Method: as §1, §2

Klebsiella pneumoniae = test: as above; conditions: read-out: Minimum Inhibitory Conc.
Method: as §1, §2

Salmonella heidelberg = test: as above; conditions: Salmonella enterica, read-out: Minimum Inhibitory Conc.
Method: as §1, §2

[1] = test system: gram-negative microorganisms; test: Antibiotic activity against gram-negative microorganisms, summary of Table I; conditions: in words; MIC values in Table I; vs compound E
Method: as §1, §2

[2] = test system: penicillin resistant staphylococcus X1.1; test: MIC by Gradient Plate Method vs penicillin resistant staphylococcus clinical isolates (Table II); conditions: read-out: Minimum Inhibitory Concentration
Method: as §1, §2

[3] = test system: penicillin resistant staphylococcus V84; test: as above; conditions: read-out: Minimum Inhibitory Concentration
Method: as §1, §2

[4] = test system: penicillin resistant staphylococcus V41; test: as above; conditions: read-out: Minimum Inhibitory Concentration
Method: as §1, §2

[5] = test system: penicillin resistant staphylococcus V32; test: as above; conditions: read-out: Minimum Inhibitory Concentration
Method: as §1, §2

SMILES | MIC (Escherichia coli) | MIC (Serratia marcescens) | MIC (Aerobacter aerogenes) | MIC (Pseudomonas aeruginosa) | MIC (Shigella sp.) | MIC (Klebsiella pneumoniae) | MIC (Salmonella heidelberg) | activity against gram-negative microorganisms compared with known compound E [1] | MIC ([2]; N.S. = in the absence of serum) | MIC ([2]; S = in the presence of serum) | MIC ([3]; N.S. = in the absence of serum) | MIC ([3]; S = in the presence of serum) | MIC ([4]; N.S. = in the absence of serum) | MIC ([4]; S = in the presence of serum) | MIC ([5]; N.S. = in the absence of serum) | MIC ([5]; S = in the presence of serum)
Cc1nnc(SCC2=C(C(=O)O)N3C(=O)C(NC(=O)[C@H](NC(=O)NC(=N)N)c4ccccc4)C3SC2)s1 (stereo partly drawn) [B, 7-[d-α-(3-guanyl-1-ureido)phenylacetamido]-3-(5-methyl-1,3,4-thiadiazol-2-yl-thiomethyl)-3-cephem-4-carboxylid acid] | 8.7 µg/mL (≈ 15.5 µM) | 14.3 µg/mL (≈ 25.4 µM) | 1 µg/mL (≈ 1.78 µM) | 104 µg/mL (≈ 185 µM) | 5.5 µg/mL (≈ 9.78 µM) | 1 µg/mL (≈ 1.78 µM) | 6 µg/mL (≈ 10.7 µM) | significantly greater activity against gram-negative microorganisms than the known compound, E | 0.6 µg/mL (≈ 1.07 µM) | 10 µg/mL | 0.6 µg/mL (≈ 1.07 µM) | 10 µg/mL | 1 µg/mL (≈ 1.78 µM) | > 20 µg/mL | 1 µg/mL (≈ 1.78 µM) | > 20 µg/mL
Cc1nnc(SCC2=C(C(=O)O)N3C(=O)C(NC(=O)[C@H](NC(=O)NC(=N)N)c4ccc(O)cc4)C3SC2)s1 (stereo partly drawn) [D, 7-[d-α-(3-guanyl-1-ureido)-4-hydroxyphenylacetamido]-3-(5-methyl-1,3,4-thiadiazol-2-yl-thiomethyl)-3-cephem-4-carboxylic acid] | 6 µg/mL (≈ 10.4 µM) | 50 µg/mL (≈ 86.4 µM) | 1 µg/mL (≈ 1.73 µM) | 50 µg/mL (≈ 86.4 µM) | 4.5 µg/mL (≈ 7.78 µM) | 1 µg/mL (≈ 1.73 µM) | 1 µg/mL (≈ 1.73 µM) | significantly greater activity against gram-negative microorganisms than the known compound, E | 1 µg/mL (≈ 1.73 µM) | 1 µg/mL | 1 µg/mL (≈ 1.73 µM) | 2 µg/mL | 1 µg/mL (≈ 1.73 µM) | 6 µg/mL | 1 µg/mL (≈ 1.73 µM) | 12 µg/mL
CC(=O)OCC1=C(C(=O)O)N2C(=O)C(NC(=O)[C@H](NC(=O)NC(=N)N)c3ccccc3)C2SC1 (stereo partly drawn) [E, 7-[d-α-(3-guanyl-1-ureido)phenylacetamido]-3-acetoxymethyl-3-cephem-4-carboxylic acid, reference compound] | 13.8 µg/mL (≈ 28.1 µM) | 31.5 µg/mL (≈ 64.2 µM) | 4.5 µg/mL (≈ 9.17 µM) | 100 µg/mL (≈ 204 µM) | 16.3 µg/mL (≈ 33.2 µM) | 21.5 µg/mL (≈ 43.8 µM) | 6 µg/mL (≈ 12.2 µM) | – | 0.6 µg/mL (≈ 1.22 µM) | 1 µg/mL | 0.6 µg/mL (≈ 1.22 µM) | 1 µg/mL | 0.5 µg/mL (≈ 1.02 µM) | 1 µg/mL | 0.7 µg/mL (≈ 1.43 µM) | 1 µg/mL
Cn1nnnc1SCC1=C(C(=O)O)N2C(=O)C(NC(=O)[C@H](NC(=O)NC(=N)N)c3ccc(O)cc3)C2SC1 (stereo partly drawn) [C, 7-[d-α-(3-guanyl-1-ureido)-4-hydroxyphenylacetamido]-3-(1-methyl-1H-tetrazol-5-yl-thiomethyl)-3-cephem-4-carboxylic acid] | 0.7 µg/mL (≈ 1.24 µM) | 21 µg/mL (≈ 37.3 µM) | 0.1 µg/mL (≈ 0.178 µM) | 23 µg/mL (≈ 40.9 µM) | 0.7 µg/mL (≈ 1.24 µM) | 1.2 µg/mL (≈ 2.13 µM) | 0.2 µg/mL (≈ 0.355 µM) | significantly greater activity against gram-negative microorganisms than the known compound, E | < 0.1 µg/mL | 0.6 µg/mL | < 0.1 µg/mL | 1 µg/mL | < 0.1 µg/mL | 10 µg/mL | 1 µg/mL (≈ 1.78 µM) | 10 µg/mL
Cn1nnnc1SCC1=C(C(=O)O)N2C(=O)C(NC(=O)[C@H](NC(=O)NC(=N)N)c3ccccc3)C2SC1 (stereo partly drawn) [A, 7-[D-α-(3-Guanyl-1-ureido)phenylacetamido]-3-(1-methyl-1H-tetrazol-5yl-thiomethyl)-3-cephem-4-carboxylic acid] | 2 µg/mL (≈ 3.66 µM) | 7 µg/mL (≈ 12.8 µM) | 0.7 µg/mL (≈ 1.28 µM) | 53.5 µg/mL (≈ 97.9 µM) | 2 µg/mL (≈ 3.66 µM) | 1 µg/mL (≈ 1.83 µM) | 0.8 µg/mL (≈ 1.46 µM) | significantly greater activity against gram-negative microorganisms than the known compound, E | 0.5 µg/mL (≈ 0.915 µM) | < 0.1 µg/mL | 0.6 µg/mL (≈ 1.1 µM) | 1 µg/mL | 0.7 µg/mL (≈ 1.28 µM) | 1 µg/mL | 1 µg/mL (≈ 1.83 µM) | 9 µg/mL

— patent publication US4039535A, “7-[α-(GUANYL-1-UREIDO)PHENYLACETAMIDO]-3-SUBSTITUTED CEPHALOSPORIN ANTIBIOTICS” (Eli Lilly and Company, priority 1976, dated 1977)
